Experimental data published in patent US20100137313A1 (ASTRAZENECA AB, priority 2008, published 2010).

biological target: S. pneumoniae Topoisomerase IV ATPase (ParE) (Streptococcus pneumoniae serotype 4, UniProt Q59961); assay: S. pneumoniae Topoisomerase IV ATPase inhibition; assay type: biochemical; conditions: values marked * are an average of two or more data points, read-out: % Inh (13 μM) of S. pneumoniae Topoisomerase IV ATPase
Procedure, shortened: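 ParE ATPase (1.25 nM) run with 160 μM ATP and 5 μg/ml sheared salmon sperm DNA in Tris pH 8.0, Mg2+, glycerol, DTT, Brij-35. Phosphate released read by malachite green/molybdate absorbance at 650 nm. IC50 from 10 compound concentrations; DMSO (2%) as 0% and EDTA (20 μM) as 100% inhibition.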

S. pneumoniae Topoisomerase IV ATPase (ParE), sequence (Q59961 whole entry): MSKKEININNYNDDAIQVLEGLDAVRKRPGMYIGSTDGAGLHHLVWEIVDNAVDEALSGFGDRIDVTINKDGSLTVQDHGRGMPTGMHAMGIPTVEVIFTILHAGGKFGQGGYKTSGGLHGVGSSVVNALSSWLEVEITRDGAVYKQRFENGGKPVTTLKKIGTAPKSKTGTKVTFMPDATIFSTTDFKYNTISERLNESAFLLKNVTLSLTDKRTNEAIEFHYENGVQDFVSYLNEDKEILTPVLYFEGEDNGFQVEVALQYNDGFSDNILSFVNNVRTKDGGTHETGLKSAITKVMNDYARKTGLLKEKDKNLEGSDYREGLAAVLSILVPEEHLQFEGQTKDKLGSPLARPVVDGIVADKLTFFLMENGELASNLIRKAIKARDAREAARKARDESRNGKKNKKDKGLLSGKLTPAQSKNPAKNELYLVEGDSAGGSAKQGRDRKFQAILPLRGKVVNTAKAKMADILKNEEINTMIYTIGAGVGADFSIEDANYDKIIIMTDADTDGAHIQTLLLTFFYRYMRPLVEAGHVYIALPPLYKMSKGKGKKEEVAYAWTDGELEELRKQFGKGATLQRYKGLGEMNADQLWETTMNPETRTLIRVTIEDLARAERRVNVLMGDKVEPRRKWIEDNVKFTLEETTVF

| SMILES | inhibition at 13 µM |
| --- | --- |
| CC(=O)NC1CCN(c2nc(Nc3ccc(F)c(Cl)c3)ncc2-c2cncc(C(=O)O)c2)CC1 [Example 256, 5-[4-(4-acetamidopiperidin-1-yl)-2-[(3-chloro-4-fluorophenyl)amino]-pyrimidin-5-yl]pyridine-3-carboxylic acid] | 78.8% |
| O=C(O)c1cncc(-c2cnc(Nc3ccc(F)c(Cl)c3)nc2NCCc2c[nH]cn2)c1 [Example 257, 5-(2-[(3-chloro-4-fluorophenyl)amino]-4-{[2-(1H-imidazol-4-yl)ethyl]amino}pyrimidin-5-yl)pyridine-3-carboxylic acid] | 83.8% |
| O=C(O)c1cncc(-c2cnc(Nc3ccc(F)c(Cl)c3)nc2NCCc2nc3ccccc3[nH]2)c1 [Example 258, 5-(4-{[2-(1H-benzimidazol-2-yl)ethyl]amino}-2-[(3-chloro-4-fluorophenyl)amino]-pyrimidin-5-yl)pyridine-3-carboxylic acid] | 88% |
| O=C(O)c1cncc(-c2cnc(Nc3ccc(F)c(Cl)c3)nc2NCCn2cccn2)c1 [Example 260, 5-(2-[(3-chloro-4-fluorophenyl)amino]-4-{[2-(1H-pyrazol-1-yl)ethyl]amino}pyrimidin-5-yl)pyridine-3-carboxylic acid] | 103% |
| Cc1ncsc1CCNc1nc(Nc2ccc(F)c(Cl)c2)ncc1-c1cncc(C(=O)O)c1 [Example 262, 5-(2-[(3-chloro-4-fluorophenyl)amino]-4-{[2-(4-methyl-1,3-thiazol-5-yl)ethyl]amino}pyrimidin-5-yl)pyridine-3-carboxylic acid] | 80.5% |
| CN1CCN(CCNc2nc(Nc3ccc(F)c(Cl)c3)ncc2-c2cncc(C(=O)O)c2)CC1 [Example 263, 5-(2-[(3-chloro-4-fluorophenyl)amino]-4-{[2-(4-methylpiperazin-1-yl)ethyl]amino}pyrimidin-5-yl)pyridine-3-carboxylate acid] | 86.2% |
| O=C(O)/C=C/c1cccc(-c2cnc(Nc3ccc(F)c(Cl)c3)nc2NCCc2c[nH]cn2)c1 [Example 264, (2E)-3-[3-(2-[(3-chloro-4-fluorophenyl)amino]-4-{[2-(1H-imidazol-4-yl)ethyl]amino}pyrimidin-5-yl)phenyl]prop-2-enoic acid] | 87.8% |
| O=C(O)/C=C/c1cccc(-c2cnc(Nc3ccc(F)c(Cl)c3)nc2NCCc2nc3ccccc3[nH]2)c1 [Example 265, (2E)-3-[3-(4-{[2-(1H-benzimidazol-2-yl)ethyl]amino}-2-[(3-chloro-4-fluorophenyl)amino]pyrimidin-5-yl)phenyl]prop-2-enoic acid] | 84.9% |
| O=C(O)/C=C/c1cccc(-c2cnc(Nc3ccc(F)c(Cl)c3)nc2NCCn2ccnc2)c1 [Example 266, (2E)-3-[3-(2-[(3-chloro-4-fluorophenyl)amino]-4-{[2-(1H-imidazol-1-yl)ethyl]amino}pyrimidin-5-yl)phenyl]prop-2-enoic acid] | 109% |
| O=C(O)/C=C/c1cccc(-c2cnc(Nc3ccc(F)c(Cl)c3)nc2NCCn2cccn2)c1 [Example 267, (2E)-3-[3-(2-[(3-chloro-4-fluorophenyl)amino]-4-{[2-(1H-pyrazol-1-yl)ethyl]amino}pyrimidin-5-yl)phenyl]prop-2-enoic acid] | 87.3% |
| O=C(O)/C=C/c1cccc(-c2cnc(Nc3ccc(F)c(Cl)c3)nc2NCCc2cn[nH]c2)c1 [Example 268, (2E)-3-[3-(2-[(3-chloro-4-fluorophenyl)amino]-4-{[2-(1H-pyrazol-4-yl)ethyl]amino}pyrimidin-5-yl)phenyl]prop-2-enoic acid] | 83% |
| Cc1ncsc1CCNc1nc(Nc2ccc(F)c(Cl)c2)ncc1-c1cccc(/C=C/C(=O)O)c1 [Example 269, (2E)-3-[3-(2-[(3-chloro-4-fluorophenyl)amino]-4-{[2-(4-methyl-1,3-thiazol-5-yl)ethyl]amino}pyrimidin-5-yl)phenyl]prop-2-enoic acid] | 78% |
| CN1CCN(CCNc2nc(Nc3ccc(F)c(Cl)c3)ncc2-c2cccc(/C=C/C(=O)O)c2)CC1 [Example 270, (2E)-3-[3-(2-[(3-chloro-4-fluorophenyl)amino]-4-{[2-(4-methylpiperazin-1-yl)ethyl]amino}pyrimidin-5-yl)phenyl]prop-2-enoic acid] | 87.7% |
| O=C(O)c1cncc(-c2cnc(Nc3ccc(F)c(Cl)c3)nc2NCCCc2nc3ccccc3[nH]2)c1 [Example 271, 5-(4-(3-(1H-benzo[d]imidazol-2-yl)propylamino)-2-(3-chloro-4-fluorophenylamino)-pyrimidin-5-yl)nicotinic acid] | 86.6% |
| CC1CN(c2nc(Nc3ccc(F)c(Cl)c3)ncc2-c2cncc(C(=O)O)c2)CC(C)O1 (stereo not drawn) [Example 272, 5-(2-(3-chloro-4-fluorophenylamino)-4-(2,6-dimethylmorpholino)-pyrimidin-5-yl)nicotinic acid] | 81.1% |
| O=C(O)c1cncc(-c2cnc(Nc3ccc(F)c(Cl)c3)nc2N2CCOCC2)c1 [Example 273, 5-(2-(3-chloro-4-fluorophenylamino)-4-morpholinopyrimidin-5-yl)nicotinic acid] | 94.4% |
| Cc1[nH]ncc1CCCNc1nc(Nc2ccc(F)c(Cl)c2)ncc1-c1cncc(C(=O)O)c1 [Example 274, 5-(2-(3-chloro-4-fluorophenylamino)-4-(3-(5-methyl-1H-pyrazol-4-yl)propylamino)pyrimidin-5-yl)nicotinic acid] | 88% |

| SMILES | inhibition at 13 µM |
| --- | --- |
| O=C(O)c1cncc(-c2cnc(Nc3ccc(F)c(Cl)c3)nc2N2CCCCC2)c1 [Example 275, 5-(2-(3-chloro-4-fluorophenylamino)-4-(piperidin-1-yl)pyrimidin-5-yl)nicotinic acid] | 134% |
| CC(=O)N1CCN(c2nc(Nc3ccc(F)c(Cl)c3)ncc2-c2cncc(C(=O)O)c2)CC1 [Example 276, 5-(4-(4-acetylpiperazin-1-yl)-2-(3-chloro-4-fluorophenylamino)-pyrimidin-5-yl)nicotinic acid] | 80.3% |
| COCCCNc1nc(Nc2ccc(F)c(Cl)c2)ncc1-c1cncc(C(=O)O)c1 [Example 277, 5-(2-(3-chloro-4-fluorophenylamino)-4-(3-methoxypropylamino)-pyrimidin-5-yl)nicotinic acid] | 85.9% |
| Cc1cnc(C(=O)NCCCNc2nc(Nc3ccc(F)c(Cl)c3)ncc2-c2cncc(C(=O)O)c2)cn1 [Example 278] | 77% |
| O=C(O)c1cncc(-c2cnc(Nc3ccc(F)c(Cl)c3)nc2N[C@@H]2CCOC2)c1 [Example 279, (R)-5-(2-(3-chloro-4-fluorophenylamino)-4-(tetrahydrofuran-3-ylamino)pyrimidin-5-yl)nicotinic acid] | 80.4% |
| O=C(O)c1cncc(-c2cnc(Nc3ccc(F)c(Cl)c3)nc2N2CCCC2)c1 [Example 280, 5-(2-(3-chloro-4-fluorophenylamino)-4-(pyrrolidin-1-yl)pyrimidin-5-yl)nicotinic acid] | 83.4% |
| Cn1cncc1CNc1nc(Nc2ccc(F)c(Cl)c2)ncc1-c1cncc(C(=O)O)c1 [Example 281, 5-(2-(3-chloro-4-fluorophenylamino)-4-((1-methyl-1H-imidazol-5-yl)methylamino)pyrimidin-5-yl)nicotinic acid] | 95.8% |
| Cn1cc(CNc2nc(Nc3ccc(F)c(Cl)c3)ncc2-c2cncc(C(=O)O)c2)cn1 [Example 282, 5-(2-(3-chloro-4-fluorophenylamino)-4-((1-methyl-1H-pyrazol-4-yl)methylamino)pyrimidin-5-yl)nicotinic acid] | 117% |
| COCC(COC)Nc1nc(Nc2ccc(F)c(Cl)c2)ncc1-c1cncc(C(=O)O)c1 [Example 283, 5-(2-(3-chloro-4-fluorophenylamino)-4-(1,3-dimethoxypropan-2-ylamino)pyrimidin-5-yl)nicotinic acid] | 89.9% |
| COCCN1CCN(c2nc(Nc3ccc(F)c(Cl)c3)ncc2-c2cncc(C(=O)O)c2)CC1 [Example 284, 5-(2-(3-chloro-4-fluorophenylamino)-4-(4-(2-methoxyethyl)piperazin-1-yl)pyrimidin-5-yl)nicotinic acid] | 69.4% |
| CN1CCN(c2nc(Nc3ccc(F)c(Cl)c3)ncc2-c2cncc(C(=O)O)c2)CC1 [Example 285, 5-(2-(3-chloro-4-fluorophenylamino)-4-(4-methylpiperazin-1-yl)pyrimidin-5-yl)nicotinic acid] | 61.9% |
| CC1CN(c2nc(Nc3ccc(F)c(Cl)c3)ncc2-c2cccc(/C=C/C(=O)O)c2)CC(C)O1 (stereo not drawn) [Example 286, (E)-3-(3-(2-(3-chloro-4-fluorophenylamino)-4-(2,6-dimethylmorpholin-)-pyrimidin-5-yl)phenyl)acrylic acid] | 89.8% |
| O=C(O)/C=C/c1cccc(-c2cnc(Nc3ccc(F)c(Cl)c3)nc2N2CCN(C(=O)C3CC3)CC2)c1 [Example 287, (E)-3-(3-(2-(3-chloro-4-fluorophenylamino)-4-(4-(cyclopropanecarbonyl)-piperazin-1-yl)pyrimidin-5-yl)phenyl)acrylic acid] | 97.2% |
| CC(=O)N1CCN(c2nc(Nc3ccc(F)c(Cl)c3)ncc2-c2cccc(/C=C/C(=O)O)c2)CC1 [Example 288, (E)-3-(3-(4-(4-acetylpiperazin-1-yl)-2-(3-chloro-4-fluorophenylamino)-pyrimidin-5-yl)phenyl)acrylic acid] | 82.9% |
| O=C(O)/C=C/c1cccc(-c2cnc(Nc3ccc(F)c(Cl)c3)nc2NCCCc2nc3ccccc3[nH]2)c1 [Example 289, (E)-3-(3-(4-(3-(1H-benzo[d]imidazol-2-yl)propylamino)-2-(3-chloro-4-fluorophenylamino)-pyrimidin-5-yl)phenyl)acrylic acid] | 88.2% |
| O=C(O)/C=C/c1cccc(-c2cnc(Nc3ccc(F)c(Cl)c3)nc2N2CCOCC2)c1 [Example 290, (E)-3-(3-(2-(3-chloro-4-fluorophenylamino)-4-morpholinopyrimidin-5-yl)phenyl)acrylic acid] | 80.5% |
